SMILES strings stand for the structures.

The subject of the assay is intracellular HBV DNA. As to the kind of experiment: Real-time PCR for intracellular HBV DNA in HepAD38 cells. In kind it is cell-based. The settings on record: Hepatitis B virus, HePAD38, 65 h, 65 hours treatment. Here is the method:
HepAD38 cells were cultured in DMEM medium (Welgene) supplemented with 200 unit/mL penicillin, 200 μg/mL streptomycin, and 10% FBS. During maintenance and passage, the cells were cultured together with 0.4 μg/mL tetracycline. Two days before the treatment with compounds for inducing HBV replication was started, the medium was replaced with a tetracycline-free complete growth medium. […]
HepAD38 cells were treated with a compound for 65 hours and then recovered, and intracellular HBV DNA was extracted therefrom according to the protocol in the DNeasy Blood & Tissue Kit (Qiagen). The primers and probes used to quantify HBV DNA were 5′-[…]-3′, 5′-[…]-3′, and 5′-/56-FAM/TGT CCT GGT/ZEN/TAT CGC TGG ATG TGT CT/3IABkFQ/-3′. The HBV DNA was amplified by real-time PCR assay using LightCycler 480 (Roche) (J. Virol., 2018, 92(16):e00339-18). All of the processes were confirmed in duplicate.
The molecule `N#Cc1cc(N(Cc2n[nH]c3c2COCC3)C(=O)Nc2ccc(F)c(Cl)c2)ccn1` [Example 123, 3-(3-chloro-4-fluorophenyl)-1-(2-cyanopyridin-4-yl)-1-((1,4,6,7-tetrahydropyrano[4,3-c]pyrazol-3-yl)methyl)urea] came in with an IC50 of 249 nM. As for `COc1ncc(N(Cc2n[nH]c(C(F)(F)F)c2CC(C)(C)O)C(=O)Nc2ccc(F)c(C(F)F)c2)cn1` [Example 205, 3-(3-(difluoromethyl)-4-fluorophenyl)-1-((4-(2-hydroxy-2-methylpropyl)-5-(trifluoromethyl)-1H-pyrazol-3-yl)methyl)-1-(2-methoxypyrimidin-5-yl)urea], the figure is above 1100 nM. As for `COc1ncc(N(Cc2cc(C#N)[nH]n2)C(=O)Nc2ccc(F)c(Cl)c2)cn1` [Example 104, 3-(3-chloro-4-fluorophenyl)-1-((5-cyano-1H-pyrazol-3-yl)methyl)-1-(2-methoxypyrimidin-5-yl)urea], the figure is 27 nM; as for `COc1ncc(N(Cc2cc(C(F)(F)F)[nH]n2)C(=O)Nc2cncnc2)cn1` [Example 2, 1-(2-methoxypyrimidin-5-yl)-3-(pyrimidin-5-yl)-1-((5-(trifluoromethyl)-1H-pyrazol-3-yl)methyl)urea], above 1100 nM; as for `COc1ccc(N(Cc2n[nH]c(C(F)F)c2OC)C(=O)Nc2ccc(F)c(Cl)c2)cn1` [Example 100, 3-(3-chloro-4-fluorophenyl)-1-((5-(difluoromethyl)-4-methoxy-1H-pyrazol-3-yl)methyl)-1-(6-methoxypyridin-3-yl)urea], 36 nM.

On to `COc1ncc(N(Cc2cc(C(F)(F)F)[nH]n2)C(=O)Nc2ccc(C#N)c(C#N)c2)cn1` [Example 167, 3-(3,4-dicyanophenyl)-1-(2-methoxypyrimidin-5-yl)-1-((5-(trifluoromethyl)-1H-pyrazol-3-yl)methyl)urea], for which the IC50 stood at 190 nM. The same measure for `COc1ncc(NC(=O)N(Cc2cc(C(F)(F)F)[nH]n2)c2cnc(OC)nc2)cn1` [Example 216, 1,3-bis(2-methoxypyrimidin-5-yl)-1-((5-(trifluoromethyl)-1H-pyrazol-3-yl)methyl)urea]: above 1100 nM; for `COc1ncc(N(Cc2cc(C(F)(F)F)[nH]n2)C(=O)Nc2cnc(F)c(F)c2)cn1` [Example 171, 3-(5,6-difluoropyridin-3-yl)-1-(2-methoxypyrimidin-5-yl)-1-((5-(trifluoromethyl)-1H-pyrazol-3-yl)methyl)urea]: 280 nM; for `COc1ncc(N(Cc2cc(C(F)(F)F)[nH]n2)C(=O)Nc2ccc(F)c(F)n2)cn1` [Example 170, 3-(5,6-difluoropyridin-2-yl)-1-(2-methoxypyrimidin-5-yl)-1-((5-(trifluoromethyl)-1H-pyrazol-3-yl)methyl)urea]: 300 nM.

For the molecule `COc1ncc(N(Cc2cc(C(F)(F)F)[nH]n2)C(=O)Nc2cnc(Cl)nc2)cn1` [Example 143, 3-(2-chloropyrimidin-5-yl)-1-(2-methoxypyrimidin-5-yl)-1-((5-(trifluoromethyl)-1H-pyrazol-3-yl)methyl)urea], the IC50 was above 1100 nM. The same measure for `COc1ncc(N(Cc2cc(C(F)F)[nH]n2)C(=O)Nc2cc(F)c(F)c(C#N)c2)cn1` [Example 150, 3-(3-cyano-4,5-difluorophenyl)-1-((5-(difluoromethyl)-1H-pyrazol-3-yl)methyl)-1-(2-methoxypyrimidin-5-yl)urea]: above 1100 nM; for `COc1ncc(N(Cc2cc(C(F)(F)F)[nH]n2)C(=O)Nc2nc(Cl)cc(C)c2F)cn1` [Example 141, 3-(6-chloro-3-fluoro-4-methylpyridin-2-yl)-1-(2-methoxypyrimidin-5-yl)-1-((5-(trifluoromethyl)-1H-pyrazol-3-yl)methyl)urea]: 420 nM.

`COc1ncc(N(Cc2cc(C(F)(F)F)[nH]n2)C(=O)Nc2cccc(C(F)F)n2)cn1` [Example 177, 3-(6-(difluoromethyl)pyridin-2-yl)-1-(2-methoxypyrimidin-5-yl)-1-((5-(trifluoromethyl)-1H-pyrazol-3-yl)methyl)urea] registered a concentration for half-maximal inhibition (IC50) of 100 nM.

(Values after patent publication US20250009742A1 (priority 2021, published 2025).)
